Assay results taken from ChEMBL document CHEMBL5316325, “Design and Synthesis of 3-Hydroxy-pyridin-4(1H)-ones-Ciprofloxacin Conjugates as Dual Antibacterial and Antibiofilm Agents against Pseudomonas aeruginosa” (J Med Chem, 2023).
The source made the active and inactive calls. The calls are words filed in the database; no cut-off is given here.

Key:
Pseudomonas aeruginosa [1] = experiment: Antibiofilm activity against Pseudomonas aeruginosa PAO1 in ABTGC medium assessed as biofilm biomass at MIC incubated for 24 hrs by crystal violet staining based assay relative to control; type: functional
Pseudomonas aeruginosa [2] = experiment: Antibiofilm activity against Pseudomonas aeruginosa PAO1 assessed as biofilm eradication at 4 times MIC incubated for 24 hrs by crystal violet staining based assay relative to control; type: functional
Pseudomonas aeruginosa [3] = experiment: Antibiofilm activity against Pseudomonas aeruginosa PAO1 assessed as biofilm eradication at high concentration incubated for 36 hrs by crystal violet staining based assay; type: functional, organism-based
Pseudomonas aeruginosa [4] = experiment: Antibiofilm activity against Pseudomonas aeruginosa PAO1 in ABTGC medium assessed as biofilm biomass at MIC incubated for 24 hrs in presence of 10 uM Fe by crystal violet staining based assay relative to control; type: functional
HEK293 = experiment: Cytotoxicity against HEK293 cells at 50 to 100 uM incubated for 48 hrs by MTT assay relative to control; type: toxicity, cell-based; conditions: human, hek293, 48 h, dose 50-100 µM
[5] = Toxicity in Caenorhabditis elegans assessed as survival rate at 50 to 100 uM measured after 48 hrs by bright field microscopy; conditions: dose 50-100 µM

## O=C(O)c1cn(C2CC2)c2cc(N3CCNCC3)c(F)cc2c1=O [CIPROFLOXACIN]
Pseudomonas aeruginosa [1]
  Activity: 109.5%
Pseudomonas aeruginosa [2]
  Activity: 23.6%
Pseudomonas aeruginosa [3]
  Activity: inactive
Pseudomonas aeruginosa [4]
  Activity: 109.5%
HEK293
  Activity: 40%
[5]
  Activity: Non-Toxic
